In ChEMBL document CHEMBL1909046, “DrugMatrix in vitro pharmacology data”:

Legend:
[1] = molecular target: Beta-3 adrenergic receptor (Homo sapiens, UniProt P13945); assay: DRUGMATRIX: Adrenergic beta3 radioligand binding (ligand: [125I] Cyanopindolol); format: cell membranes, HEK293, Membrane; settings: hek293; Not Active = under 50% inhibition at 10 µM
[2] = DRUGMATRIX: Glutamate, AMPA radioligand binding (ligand: [3H] AMPA); format: cell membranes, Rattus norvegicus, Wistar, Cerebral cortex, Membrane; settings: Not Active = under 50% inhibition at 10 µM
[3] = DRUGMATRIX: Platelet-Derived Growth Factor (PDGF) radioligand binding (ligand: [125I] PDGF); format: cell-based; settings: nih3t3; Not Active = under 50% inhibition at 10 µM
Histamine H2 receptor = Histamine H2 receptor (Homo sapiens, UniProt P25021); format: cell membranes, CHO-K1, Membrane; settings: cho-k1; note: in other assays of this panel Not Active means under 50% inhibition at 10 µM
Histamine H2 receptor, sequence (P25021 whole entry): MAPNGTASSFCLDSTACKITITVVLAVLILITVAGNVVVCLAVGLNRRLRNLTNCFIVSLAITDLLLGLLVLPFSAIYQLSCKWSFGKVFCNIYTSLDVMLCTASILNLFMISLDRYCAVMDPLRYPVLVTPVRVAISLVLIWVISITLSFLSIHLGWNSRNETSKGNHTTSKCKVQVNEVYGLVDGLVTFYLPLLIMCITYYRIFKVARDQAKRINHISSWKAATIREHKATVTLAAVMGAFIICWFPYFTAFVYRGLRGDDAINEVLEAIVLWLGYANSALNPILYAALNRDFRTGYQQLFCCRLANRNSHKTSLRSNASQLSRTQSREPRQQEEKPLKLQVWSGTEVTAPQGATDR

Glycine receptor = Glycine receptor (Rattus norvegicus, UniProt P22771+P24524+P07727+P20781); format: cell membranes, Wistar, Spinal cord, Membrane; note: in other assays of this panel Not Active means under 50% inhibition at 10 µM
[4] = molecular target: 5-hydroxytryptamine receptor 6 (Homo sapiens, UniProt P50406); format: cell membranes, HeLa, Membrane; settings: hela; note: in other assays of this panel Not Active means under 50% inhibition at 10 µM
5-hydroxytryptamine receptor 6, sequence (P50406 whole entry): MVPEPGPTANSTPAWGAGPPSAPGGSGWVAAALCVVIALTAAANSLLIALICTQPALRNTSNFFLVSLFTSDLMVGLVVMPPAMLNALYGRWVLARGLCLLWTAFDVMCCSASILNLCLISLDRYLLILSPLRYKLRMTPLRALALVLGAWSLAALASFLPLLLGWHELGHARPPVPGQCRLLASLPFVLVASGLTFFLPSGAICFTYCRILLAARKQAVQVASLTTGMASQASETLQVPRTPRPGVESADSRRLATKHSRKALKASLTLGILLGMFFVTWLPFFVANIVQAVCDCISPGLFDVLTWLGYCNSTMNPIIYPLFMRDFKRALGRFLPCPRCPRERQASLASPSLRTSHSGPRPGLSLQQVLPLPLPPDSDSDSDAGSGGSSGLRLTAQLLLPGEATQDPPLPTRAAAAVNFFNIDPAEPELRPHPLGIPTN

[5] = DRUGMATRIX: Sodium/nucleoside co-transporter radioligand binding (ligand: nitrobenzylthioinosine); format: cell membranes, Cavia porcellus, Dunkin-Hartley, Cerebral cortex, Membrane; settings: Not Active = under 50% inhibition at 10 µM
[6] = DRUGMATRIX: beta-Lactamase enzyme inhibition (substrate: Nitrocefin); parameters: species or system Bacillus cereus; settings: Not Active = under 50% inhibition at 10 µM
[7] = DRUGMATRIX: Glutamate, Kainate radioligand binding (ligand: [3H] Kainic acid); format: cell membranes, Rattus norvegicus, Wistar, Brain, Membrane; settings: Not Active = under 50% inhibition at 10 µM
[8] = DRUGMATRIX: Imidazoline I2, Central radioligand binding (ligand: [3H] Idazoxan); format: cell membranes, Rattus norvegicus, Wistar, Cerebral cortex, Membrane; settings: Not Active = under 50% inhibition at 10 µM
D(3) dopamine receptor = D(3) dopamine receptor (Homo sapiens, UniProt P35462); assay: DRUGMATRIX: Dopamine D3 radioligand binding (ligand: [3H] Spiperone); format: cell membranes, CHO, Membrane; settings: cho
D(3) dopamine receptor, sequence (P35462 whole entry): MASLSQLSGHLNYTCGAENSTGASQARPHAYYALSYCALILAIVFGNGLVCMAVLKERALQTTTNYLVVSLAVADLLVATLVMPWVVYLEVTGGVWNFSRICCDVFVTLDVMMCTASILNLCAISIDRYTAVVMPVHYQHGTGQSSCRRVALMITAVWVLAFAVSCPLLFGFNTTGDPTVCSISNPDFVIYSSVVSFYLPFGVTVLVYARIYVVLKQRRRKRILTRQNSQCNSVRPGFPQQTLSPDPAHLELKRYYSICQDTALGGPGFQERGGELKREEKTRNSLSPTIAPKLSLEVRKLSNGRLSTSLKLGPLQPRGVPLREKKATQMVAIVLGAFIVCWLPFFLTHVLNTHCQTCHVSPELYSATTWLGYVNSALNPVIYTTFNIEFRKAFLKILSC

[9] = molecular target: Sodium-dependent noradrenaline transporter (Homo sapiens, UniProt P23975); assay: DRUGMATRIX: Norepinephrine Transporter radioligand binding (ligand: [125I] RTI-55); format: cell membranes, MDCK, Membrane; settings: mdck; Not Active = under 50% inhibition at 10 µM
Sodium-dependent noradrenaline transporter, sequence (P23975 whole entry): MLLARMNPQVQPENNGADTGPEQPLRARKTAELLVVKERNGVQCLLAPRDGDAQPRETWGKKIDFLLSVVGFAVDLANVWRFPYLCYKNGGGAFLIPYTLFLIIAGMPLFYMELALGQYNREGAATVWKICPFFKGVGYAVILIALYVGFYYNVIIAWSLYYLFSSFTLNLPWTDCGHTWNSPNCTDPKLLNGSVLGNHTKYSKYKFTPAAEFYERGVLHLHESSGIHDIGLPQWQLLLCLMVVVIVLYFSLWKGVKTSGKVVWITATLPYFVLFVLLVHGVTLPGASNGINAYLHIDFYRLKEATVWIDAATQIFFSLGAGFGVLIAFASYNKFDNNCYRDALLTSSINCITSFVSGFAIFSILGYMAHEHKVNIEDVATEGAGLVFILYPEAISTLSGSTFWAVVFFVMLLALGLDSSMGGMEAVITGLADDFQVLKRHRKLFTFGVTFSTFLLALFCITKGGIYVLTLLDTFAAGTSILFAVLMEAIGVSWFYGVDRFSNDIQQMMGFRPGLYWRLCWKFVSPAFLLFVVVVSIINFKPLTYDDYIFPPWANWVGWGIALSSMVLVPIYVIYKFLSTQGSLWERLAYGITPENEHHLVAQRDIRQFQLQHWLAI

D(4) dopamine receptor = molecular target: T1, D(4) dopamine receptor (Homo sapiens, UniProt P21917); assay: DRUGMATRIX: Dopamine D4.2 radioligand binding (ligand: [3H] Spiperone); format: cell membranes, CHO-K1, Membrane; settings: cho-k1; Not Active = under 50% inhibition at 10 µM
T1 sequence (P21917 whole entry): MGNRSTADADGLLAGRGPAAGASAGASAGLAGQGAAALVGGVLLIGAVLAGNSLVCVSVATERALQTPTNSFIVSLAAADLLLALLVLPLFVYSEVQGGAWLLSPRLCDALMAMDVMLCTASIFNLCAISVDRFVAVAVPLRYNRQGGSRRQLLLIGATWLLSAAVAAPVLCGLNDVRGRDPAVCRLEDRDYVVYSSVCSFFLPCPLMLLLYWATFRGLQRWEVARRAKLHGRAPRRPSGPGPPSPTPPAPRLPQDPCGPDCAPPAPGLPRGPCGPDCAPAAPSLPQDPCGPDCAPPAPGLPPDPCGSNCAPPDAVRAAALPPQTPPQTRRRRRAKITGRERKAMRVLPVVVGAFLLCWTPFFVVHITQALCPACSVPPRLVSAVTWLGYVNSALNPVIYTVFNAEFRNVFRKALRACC

[10] = molecular target: 5-hydroxytryptamine receptor 2B (Homo sapiens, UniProt P41595); format: cell membranes, CHO-K1, Membrane; settings: cho-k1; note: in other assays of this panel Not Active means under 50% inhibition at 10 µM
5-hydroxytryptamine receptor 2B, sequence (P41595 whole entry): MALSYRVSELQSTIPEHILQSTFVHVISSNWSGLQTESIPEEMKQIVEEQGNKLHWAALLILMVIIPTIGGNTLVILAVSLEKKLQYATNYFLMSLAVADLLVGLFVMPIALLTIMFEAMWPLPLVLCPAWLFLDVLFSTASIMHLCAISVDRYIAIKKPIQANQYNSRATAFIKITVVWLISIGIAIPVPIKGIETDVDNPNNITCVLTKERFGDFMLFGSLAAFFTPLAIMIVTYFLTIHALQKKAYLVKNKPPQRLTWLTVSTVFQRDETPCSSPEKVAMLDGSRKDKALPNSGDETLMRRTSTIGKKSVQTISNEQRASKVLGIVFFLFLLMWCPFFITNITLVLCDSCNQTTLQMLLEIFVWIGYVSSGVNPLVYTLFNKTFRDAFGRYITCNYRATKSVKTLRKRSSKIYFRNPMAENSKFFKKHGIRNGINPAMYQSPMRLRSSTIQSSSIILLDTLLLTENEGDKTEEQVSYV

[11] = molecular target: T2, C-X-C chemokine receptor type 1 (Homo sapiens, UniProt P25024); note: in other assays of this panel Not Active means under 50% inhibition at 10 µM
T2 sequence (P25024 whole entry): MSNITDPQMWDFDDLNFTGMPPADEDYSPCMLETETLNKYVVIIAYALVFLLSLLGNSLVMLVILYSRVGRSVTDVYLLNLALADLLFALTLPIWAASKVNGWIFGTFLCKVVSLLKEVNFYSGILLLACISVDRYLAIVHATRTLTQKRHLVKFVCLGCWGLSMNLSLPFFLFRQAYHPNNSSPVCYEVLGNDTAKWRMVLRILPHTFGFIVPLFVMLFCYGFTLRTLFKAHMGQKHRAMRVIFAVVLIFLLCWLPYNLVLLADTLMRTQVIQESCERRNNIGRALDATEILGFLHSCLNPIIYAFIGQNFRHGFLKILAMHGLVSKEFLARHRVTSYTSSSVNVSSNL

[12] = DRUGMATRIX: GABAA, Chloride Channel, TBOB radioligand binding (ligand: [3H] TBOB); format: cell membranes, Rattus norvegicus, Wistar, Cerebral cortex, Membrane; settings: Not Active = under 50% inhibition at 10 µM
Thromboxane-A synthase = molecular target: T3, Thromboxane-A synthase (Homo sapiens, UniProt P24557); assay: biochemical; format: tissue-based, Platelet; settings: platelet
T3 sequence (P24557 whole entry): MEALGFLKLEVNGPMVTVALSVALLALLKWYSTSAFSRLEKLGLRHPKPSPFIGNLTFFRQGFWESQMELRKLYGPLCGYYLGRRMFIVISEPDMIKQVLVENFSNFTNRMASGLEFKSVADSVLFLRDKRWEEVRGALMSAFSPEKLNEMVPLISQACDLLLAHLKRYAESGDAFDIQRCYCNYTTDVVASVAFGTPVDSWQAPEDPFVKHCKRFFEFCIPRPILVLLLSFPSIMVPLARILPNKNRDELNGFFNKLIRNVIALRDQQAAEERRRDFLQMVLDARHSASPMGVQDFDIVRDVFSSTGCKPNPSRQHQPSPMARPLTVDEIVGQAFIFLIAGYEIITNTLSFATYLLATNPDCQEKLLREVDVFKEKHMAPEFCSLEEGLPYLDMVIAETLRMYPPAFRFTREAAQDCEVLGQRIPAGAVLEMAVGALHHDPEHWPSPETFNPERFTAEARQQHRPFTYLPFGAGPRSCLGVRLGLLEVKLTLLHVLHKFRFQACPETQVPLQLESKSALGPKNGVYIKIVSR

Beta-3 adrenergic receptor, sequence (P13945 whole entry): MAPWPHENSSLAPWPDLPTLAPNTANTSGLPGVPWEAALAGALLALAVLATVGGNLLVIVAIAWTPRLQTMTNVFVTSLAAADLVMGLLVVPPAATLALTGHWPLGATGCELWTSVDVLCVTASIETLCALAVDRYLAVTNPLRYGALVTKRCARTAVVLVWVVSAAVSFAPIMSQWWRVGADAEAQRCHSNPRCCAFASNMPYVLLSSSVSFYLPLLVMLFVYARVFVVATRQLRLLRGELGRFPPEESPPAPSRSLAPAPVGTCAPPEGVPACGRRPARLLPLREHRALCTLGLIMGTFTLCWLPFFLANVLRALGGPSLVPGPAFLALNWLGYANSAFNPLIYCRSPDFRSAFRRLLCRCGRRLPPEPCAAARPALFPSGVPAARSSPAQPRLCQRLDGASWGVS

NCC(=O)O [GLYCINE]
Not Active: IC50 [1] | IC50 [2] | Ki [2] | IC50 [3] | Ki [3] | IC50 (Histamine H2 receptor) | IC50 (Glycine receptor) | IC50 [4] | IC50 [5] | Ki [5] | IC50 [6] | Ki [6] | IC50 [7] | Ki [7] | IC50 [8] | Ki [8] | IC50 (D(3) dopamine receptor) | IC50 [9] | IC50 (D(4) dopamine receptor) | IC50 [10] | IC50 [11] | IC50 [12] | Ki [12] | IC50 (Thromboxane-A synthase)

CC1(C)[C@@H](O[C@H]2O[C@H](C(=O)O)[C@@H](O)[C@H](O)[C@H]2O[C@@H]2O[C@H](C(=O)O)[C@@H](O)[C@H](O)[C@H]2O)CC[C@]2(C)[C@H]3C(=O)C=C4[C@@H]5C[C@@](C)(C(=O)O)CC[C@]5(C)CC[C@@]4(C)[C@]3(C)CC[C@@H]12 [GLYCYRRHIZIN]
Not Active: IC50 [1] | IC50 [2] | Ki [2] | IC50 [3] | Ki [3] | IC50 (Histamine H2 receptor) | IC50 (Glycine receptor) | IC50 [4] | IC50 [5] | Ki [5] | IC50 [6] | Ki [6] | IC50 [7] | Ki [7] | IC50 [8] | Ki [8] | IC50 (D(3) dopamine receptor) | IC50 [9] | IC50 (D(4) dopamine receptor) | IC50 [10] | IC50 [11] | IC50 [12] | Ki [12] | IC50 (Thromboxane-A synthase)

COC1=CC(=O)C[C@@H](C)[C@]12Oc1c(Cl)c(OC)cc(OC)c1C2=O [GRISEOFULVIN]
Not Active: IC50 [1] | IC50 [2] | Ki [2] | IC50 [3] | Ki [3] | IC50 (Histamine H2 receptor) | IC50 (Glycine receptor) | IC50 [4] | IC50 [5] | Ki [5] | IC50 [6] | Ki [6] | IC50 [7] | Ki [7] | IC50 [8] | Ki [8] | IC50 (D(3) dopamine receptor) | IC50 [9] | IC50 (D(4) dopamine receptor) | IC50 [10] | IC50 [11] | IC50 [12] | Ki [12] | IC50 (Thromboxane-A synthase)
